Patent US20130266535A1, “METHYL SALICYLATE-BASED ATTRACTANTS FOR VECTORS OF CITRUS GREENING DISEASE” (priority 2012, published 2013)

Tested on: Diaphorina citri
Test: Two-port T-olfactometer behavioral bioassay with synthetic chemicals vs. clean air (solvent-only wick)
Type: in vivo
Conditions: for Proportion of D. citri responding to treatment arm: non-infected female adults, treatment vs solvent control arm
Source text: A custom designed two-port divided T-olfactometer [Analytical Research Systems (ARS), Inc. Gainesville, Fla.] that has been thoroughly described in [98] was used to evaluate behavioral response of D. citri. Briefly, the olfactometer consisted of a 30 cm long glass tube with 3.5 cm internal diameter that is bifurcated into two equal halves with a Teflon strip forming a T-maze. Each half served as an arm of the olfactometer enabling the D. citri to make a choice between two potential odor fields. The olfactometer arms were connected to odor sources placed in 35 cm tall×15 cm wide dome shaped guillotine volatile collection chambers (GVCC) (ARS, Gainesville, Fla.) through Teflon-glass tube connectors. The odor sources comprised 14-16 week old Las-infected or non-infected C. sinensis plants placed in GVCC. Purified and humidified air was pushed through the GVCC via two pumps connected to an air delivery system (ARS, Gainesville, Fla.). A constant airflow of 0.1 L/min was maintained through both arms of the olfactometer. The olfactometer was housed within a temperature-controlled room and positioned vertically under a fluorescent 900-lux light bulb within a fiberboard box for uniform light diffusion. This positioning took advantage of the negative geotactic and positive phototactic response of D. citri.
D. citri adults were released individually into the inlet adapter at the base of the olfactometer. An odor source was randomly assigned to one of the arms of the olfactometer at the beginning of each bioassay and was reversed after every 30 insects to eliminate positional bias. Initially, D. citri adults were exposed to clean air vs. clean air in the olfactometer to verify the absence of positional bias. Thereafter, the behavioral response of non-infected or Las-infected D. citri was tested against non-infected versus Las-infected plants. D. citri adults were also exposed to non-infected grafted (sham grafted) vs. non-grafted-non-infected plants to determine the effects of grafting only on D. citri behavior. For each treatment, C. sinensis plants were grafted with C. aurantifolia budwood four months prior to initiating behavioral experiments. A minimum of 150 male or female D. citri adults were examined per treatment combination (five replications of 30 D. citri). Each D. citri that responded to odors was individually subjected to qPCR to determine Las infection status using the procedures described above.
MeSA was released in greater quantities from Las-infected plants than non-infected plants, while MeAN and D-limonene were released in greater quantities by non-infected than infected plants (See results). Therefore, the behavioral response of D. citri to these synthetic chemicals was tested. A known D. citri attractant, β-ocimene, was used as a positive control. All chemicals were obtained from Sigma Aldrich (St Louis, Mo.) with purities ranging between 97 and 99%. Purity of β-ocimene was 90% and contained a mixture of isomers comprising 20-25% limonene. Each treatment was dissolved in 100 μl of dichloromethane and pipetted onto a 2 cm Richmond cotton wick (Petty John Packaging, Inc. Concord, N.C.) at 0.001, 0.01, 0.1, 1.0, 10.0 and 100.0 μg dosages. The control treatment consisted of a cotton wick impregnated with solvent only. The solvent from both treatments was allowed to evaporate within a fume hood for 30 min prior to assays. The bioassay procedures with synthetic chemicals were identical to those described earlier for plant samples. However, in this case, treatments (odor sources) were placed into solid phase micro extraction chambers (SPMEC) (ARS, Gainesville, Fla.) instead of the GVCC described above. The SPMEC consists of a straight glass tube (17.5 cm long×2.5 cm internal diameter) supported with an inlet and outlet valve for incoming and outgoing air streams, respectively. […]

Structure (SMILES) | Behavioral response of D. citri (attraction/repulsion) (100 μg dosage) | Proportion of D. citri responding to treatment arm (dosage 0.001 μg on cotton wick) | Proportion of D. citri responding to treatment arm (dosage 0.01 μg on cotton wick) | Proportion of D. citri responding to treatment arm (dosage 0.1 μg on cotton wick) | Proportion of D. citri responding to treatment arm (dosage 1.0 μg on cotton wick) | Proportion of D. citri responding to treatment arm (dosage 10.0 μg on cotton wick) | Proportion of D. citri responding to treatment arm (dosage 100.0 μg on cotton wick) | Behavioral response of D. citri (attraction/repulsion) (any of the dosages tested (0.001-100 μg)) | Behavioral response of D. citri (attraction/repulsion) (0.001 μg dosage) | Behavioral response of D. citri (attraction/repulsion) (1-100 μg dosages)
C=C(C)[C@H]1CC=C(C)CC1 [D-limonene] | attracted | 56.06 | 60.87 | 54.39 | 54.65 | 60.24 | 61.54 |  |  | 
COC(=O)c1ccccc1N [Methyl anthranilate, methyl anthranilate] |  | 58.06 | 57.14 | 61.76 | 57.33 | 56.10 | 52.27 | did not attract or repel |  | 
COC(=O)c1ccccc1O [Methyl salicylate, methyl salicylate] | repelled | 54.00 | 60.44 | 54.76 | 45.12 | 41.03 | 39.56 |  | attracted | 
C=CC(C)=CCC=C(C)C [β-ocimene, reference compound] |  | 52.22 | 54.46 | 53.19 | 60.44 | 61.46 | 62.77 |  |  | attractive
